From PubChem BioAssay AID686920 (Broad Institute, 2013)

What follows are molecules tested on A673 NR0B1-luciferase reporter, viability-normalised luminescence (assay: NR0B1 reporter signal reduction in A673 cells – cell-based, luciferase luminescence, cherry-pick, EWS/Fli inhibitor project, dose response (AID 686920)).
Cc1ccccc1NC(=O)C(=Cc1ccc(C(=O)O)cc1)C(=O)Nc1ccccc1C gave an AC35 of 5.63 µM. In the case of C[C@H]1CN([C@@H](C)CO)C(=O)Cc2cc(NC(=O)CCCCCC(=O)Nc3ccccc3N)ccc2O[C@H]1CN(C)Cc1ccc(C(F)(F)F)cc1, the AC35 is reported as 6.15 µM. Nc1ccc(-c2cc3ccccc3oc2=O)cc1 was tested, and the AC35 was 0.208 µM. Molecule CC12CCC(O)CC1CCC1C2CCC2(C)C(C3=CC(=O)OC3)CCC12O (centres undefined) has an AC35 of 0.391 µM. C=CCn1c(O)c(N=Nc2ccccc2)c2ccccc21 gave an AC35 of 38.9 µM. Work on O=C(O)c1ccc(N/N=C/c2ccc(OC(=O)c3cccc(Cl)c3)cc2)cc1 yielded an AC35 of 7.06 µM. Molecule CCCC[C@@H]1Cc2[nH][nH]c(=O)c2[C@H](c2ccc3ccccc3c2)O1 has an AC35 of 11.8 µM. For C[C@H]1CCCCO[C@H](CN(C)Cc2ccc(C(F)(F)F)cc2)[C@@H](C)CN([C@@H](C)CO)C(=O)c2cc(NC(=O)Nc3ccccc3)ccc2O1, the AC35 was 19.4 µM. Nc1ccc2c(c1)OC1(CCCC1)O2 gave an AC35 of 6.63 µM. N#C[C@@H]1[C@H](c2ccc(C#Cc3ccc(F)cc3)cc2)[C@@H](CO)N1C(=O)Nc1ccc(F)cc1 showed an AC35 of 5.54 µM. Molecule Cc1ccc(/C=C2\SC(=S)N(CCCC(=O)NNC(=O)c3ccccc3O)C2=O)cc1 has an AC35 of 2.09 µM. CCc1ccc2oc(C(=O)N3CCN(c4ccccc4OC)CC3)cc(=O)c2c1 gave an AC35 of 10.7 µM. For CCOc1ccc(-c2noc(CCC(=O)O)n2)cc1, the AC35 was 1.17 µM. In the case of COc1ccc(NS(=O)(=O)c2cc(NC(=O)CNC(=O)c3cccc(OC)c3)ccc2C)cc1, the AC35 is reported as 66.3 µM. COc1ccc(/C=C2\SC(=O)N(CCCC(=O)Nc3cc(Cl)ccc3C(=O)O)C2=O)cc1 was tested, and the AC35 was 0.169 µM. Molecule CCCNC(=O)N1[C@H](C#N)[C@H](c2ccc(C#Cc3ccc(F)cc3)cc2)[C@H]1CO has an AC35 of 10.1 µM. CCc1cnc(N2[C@H](C#N)[C@H](c3ccc(C#Cc4ccccc4F)cc3)[C@H]2CO)s1 gave an AC35 of 9.23 µM. Molecule CCc1ccc(/C=C2\SC(=S)N(CCCC(=O)NCCCN3CCOCC3)C2=O)cc1 has an AC35 of 1.98 µM. Cc1nc2cc(-c3ccc(Cl)cc3)nn2c(C)c1CCC(=O)NC(C)c1ccc2c(c1)OCCO2 (centres undefined) gave an AC35 of 0.847 µM. COc1cc2c(cc1NC(=O)CN(C)Cc1ccc(OC)c(OC)c1)oc1ccccc12 gave an AC35 of 8.33 µM. With O=C(NC(=O)c1ccccc1)Nc1ccccc1 the AC35 was 12.8 µM. C[C@@H]1O[C@@H](O[C@@H]2C=C3CCC4C(CC[C@]5(C)[C@@H](c6ccc(=O)oc6)CC[C@]45O)[C@@]3(C)CC2)[C@H](O)[C@H](O)[C@H]1O (some centres undefined) showed an AC35 of less than 0.09 µM. Cc1cccc(NC(=O)CN2CCN(C(=O)CNC(=O)c3ccc(-c4ccccc4)cc3)CC2)c1C showed an AC35 of 8.14 µM. For CC1(C)Oc2cc3oc(-c4cc(O)cc(O)c4)cc3cc2CC1O (centres undefined), the AC35 was 2.07 µM. For C[C@H](CO)N1C[C@H](C)[C@H](CN(C)Cc2ccc(Oc3ccccc3)cc2)Oc2ccc(NC(=O)CCCCCC(=O)Nc3ccccc3N)cc2CC1=O, the AC35 was 4.15 µM. For CN=c1scc(-c2ccccc2F)n1/N=C/c1ccc(O)c(O)c1O, the AC35 was 15.7 µM. Molecule C[C@@H]1CN([C@@H](C)CO)C(=O)Cc2cc(N(C)C)ccc2O[C@@H]1CN(C)Cc1ccccc1 has an AC35 of 7.99 µM. With CN1C(=O)c2cc(NC(=O)c3ccc(C(F)(F)F)cc3)ccc2OC[C@@H]2O[C@@H](CC(=O)NC3Cc4ccccc4C3)CC[C@H]21 the AC35 was 8.33 µM. BrC(=C\c1ccccc1)/C=N/n1cnnc1 was tested, and the AC35 was 7.17 µM. O=C(O)c1ccc(N/N=C/c2ccc3nccnc3c2)cc1 gave an AC35 of 0.993 µM. In the case of CCc1ccc(N2C=C(C(=O)OC)C(c3ccc(OC)cc3)C(C#N)=C2N)cc1 (centres undefined), the AC35 is reported as 5.38 µM. Work on Cc1ccc(C(=O)O/N=C(\N)c2ccccn2)cc1 yielded an AC35 of 9.92 µM. C[C@@H]1CCCCO[C@H](CN(C)Cc2ccc(C(=O)Nc3ccccc3N)cc2)[C@@H](C)CN([C@H](C)CO)C(=O)c2cc(NS(=O)(=O)c3ccc(F)cc3)ccc2O1 showed an AC35 of 5.53 µM. CCCCNC(=O)C(c1ccc(OCC(=O)OC)c(C(=O)OC)c1)N(CCOC)C(=O)CCCCCN1C(=O)NC(c2ccc(-c3ccccc3)cc2)C(C(=O)OCc2ccccc2)=C1C (centres undefined) showed an AC35 of 40.4 µM. With N#C[C@H]1[C@H](c2ccc(-c3ccccc3F)cc2)[C@@H](CO)N1C(=O)c1ccccn1 the AC35 was 9.49 µM. Molecule COC(=O)C[C@@H]1CC[C@@H]2[C@H](COc3ccc(NC(=O)Nc4ccc(C#N)cc4)cc3C(=O)N2C)O1 has an AC35 of 62.4 µM. Molecule O=C(N/N=C/c1cnc(N2CCCCC2)s1)c1ccc(C(F)(F)F)cc1 has an AC35 of 56.8 µM. O=C(O)c1ccc(N/N=C/c2c[nH]c3ccccc23)cc1 was tested, and the AC35 was 8.82 µM. CCCCc1c(-c2ccccc2OC)ncn1Cc1ccc(C(C)(C)C)cc1 gave an AC35 of 10 µM. With N#C[C@H]1[C@H](c2ccc(C#Cc3ccccc3F)cc2)[C@@H](CO)N1C(=O)C1CCCCC1 the AC35 was 19.5 µM. COC(=O)c1cccc(NC(=O)NC(=O)c2ccc(Cl)cc2)c1 gave an AC35 of 0.225 µM. For C[C@@H]1CN([C@@H](C)CO)C(=O)c2cccc(NC(=O)CCCCCC(=O)Nc3ccccc3N)c2O[C@@H]1CN(C)Cc1ccc(Oc2ccccc2)cc1, the AC35 was 6.74 µM. Work on COc1ccc(CNc2ncc(-c3ccc(F)cc3)n2C)c2ccccc12 yielded an AC35 of 6.93 µM. In the case of O=C(CN1C(=O)C(=O)c2ccccc21)c1ccc(Cl)cc1, the AC35 is reported as 34.2 µM. CCCCCCCCn1c2c(c(=N)c3c1CCC3)CCCC2 showed an AC35 of 5.73 µM. COC1C(O)C(C)OC(OC2C(Oc3cccc4c(O)c5c(=O)oc6ccc(C)c7c(=O)oc(c34)c5c67)OC(C)C(O)C2O)C1O (centres undefined) gave an AC35 of 4.49 µM. COc1ccc(CC(N)c2csc(NC(=O)Nc3cccc(C(F)(F)F)c3)n2)cc1 (centres undefined) gave an AC35 of 9.72 µM. COc1ccc(S(=O)(=O)N2CCCc3nc(-c4ccc(F)cc4)ccc32)cc1 gave an AC35 of 4.87 µM. Molecule C[C@@H]1CN([C@H](C)CO)C(=O)Cc2cc(NC(=O)CCCCCC(=O)Nc3ccccc3N)ccc2O[C@@H]1CN(C)CC1CCCCC1 has an AC35 of 7.74 µM. With C(=Cc1c[nH]c2ccccc12)c1ccc2ccccc2n1 the AC35 was 2.22 µM. Molecule Cn1ccc2cc(-c3ccc4ncnc(NCc5cccs5)c4c3)ccc21 has an AC35 of 4.12 µM. Molecule Cc1cc2c(C(C)C)c(O)c(O)c(C=O)c2c(O)c1-c1c(C)cc2c(C(C)C)c(O)c(O)c(C=O)c2c1O has an AC35 of 7.16 µM. Work on CN1c2ccc(-c3ccc(C#N)cc3)cc2[C@H]2[C@H](CCN2S(=O)(=O)c2cccc(F)c2)[C@H]1CO yielded an AC35 of 1.74 µM. With COc1cccc(OC)c1C(=O)Nc1cc(C)nn1-c1nc2ccccc2[nH]1 the AC35 was 26.7 µM. O=C(N/N=C/c1cccs1)c1n[nH]c2c1CCCC2 gave an AC35 of 4.03 µM. In the case of C/C(=N\OCc1cccc(C(=O)O)c1)c1ccc(Cl)cc1, the AC35 is reported as 0.832 µM. Work on C(=N\Nc1nc2ccccc2s1)/c1ccccn1 yielded an AC35 of 0.77 µM. In the case of COc1ccc(CN(C)C[C@H]2Oc3ccc(NC(=O)CCCCCC(=O)Nc4ccccc4N)cc3CC(=O)N([C@H](C)CO)C[C@H]2C)cc1, the AC35 is reported as 15.4 µM. COc1ccc(S(=O)(=O)Nc2ccc3c(c2)C(=O)N([C@H](C)CO)C[C@@H](C)[C@@H](CN(C)Cc2ccc(C(=O)Nc4ccccc4N)cc2)O3)cc1 gave an AC35 of 5.11 µM. Molecule COc1ccc(/C=C/C(=O)c2ccc(C(=O)/C=C/c3ccc(OC)c(OC)c3)cc2)cc1OC has an AC35 of 6.78 µM. With CC(C)N1C/C(=C/c2cccnc2)C(=O)/C(=C/c2cccnc2)C1 the AC35 was 10.8 µM. Work on O=c1oc2cc(O)ccc2s1 yielded an AC35 of 11.8 µM. Work on O=C(O)c1ccccc1C(=O)Nc1ccc(Oc2cccc3ccccc23)cc1 yielded an AC35 of 2.28 µM. In the case of Cc1nc(N)nc(N)c1-c1ccc(Cl)c(Cl)c1, the AC35 is reported as 0.495 µM. With O=C1CCC2S/C(=C/Nc3ccc(C(F)(F)F)cc3)C(=O)N12 (centres undefined) the AC35 was 0.385 µM. OC[C@H]1[C@@H](c2ccc(C#CC3CCCC3)cc2)[C@@H]2CN(CCC(F)(F)F)CCCCN12 showed an AC35 of 9.24 µM. Molecule COc1ccc(C=NNc2nc3ccccc3s2)cc1 has an AC35 of 6.43 µM. C(=N\Nc1ccc2ccccc2n1)/c1ccc2c(c1)OCCO2 gave an AC35 of 0.728 µM. In the case of CCOC(=O)[C@]12Cc3ccc(C)cc3[C@H]1N(C1CCCCC1)C(=O)c1ccccc12, the AC35 is reported as 5.49 µM. With N#CC(C#N)=C1C=CC=CN1/C(=C\c1ccco1)C(=O)c1ccc(Cl)cc1 the AC35 was 7.6 µM. Work on CCCc1cc(=O)oc2c3c(c4c(c12)OC(C)(C)C=C4)OC(C)C(C)C3O (centres undefined) yielded an AC35 of 33.3 µM. With C[C@@H]1CN([C@@H](C)CO)C(=O)c2cc(NS(=O)(=O)c3ccc(Cl)cc3)ccc2O[C@@H]1CN(C)Cc1ccc(C(=O)Nc2ccccc2N)cc1 the AC35 was 7.36 µM. For Cc1ccsc1C(=O)OCC(=O)c1cc(C)n(C)c1C, the AC35 was 6.2 µM. Work on O=C1C(=O)N(CCS(=O)(=O)c2ccccc2)c2ccccc21 yielded an AC35 of 20.7 µM. CN1c2ccc(-c3ccc(C#N)cc3)cc2[C@H]2[C@H](CCN2S(=O)(=O)c2cccc(F)c2)[C@@H]1CO gave an AC35 of 4.64 µM. For C=CC[n+]1c(-c2ccc(C)cc2)csc1Nc1ccc(NC(C)=O)cc1, the AC35 was 15.6 µM. Molecule C[C@H]1CN([C@@H](C)CO)C(=O)c2cc(N(C)C)ccc2O[C@H]1CN(C)Cc1ccc(C(=O)Nc2ccccc2N)cc1 has an AC35 of 15 µM. CO[C@H]1CN(C)C(=O)c2ccc(NC(=O)c3ccc(-c4ccccc4)cc3)cc2OC[C@H](C)NC[C@H]1C was tested, and the AC35 was 15 µM. C[C@]12CC[C@H](O)C[C@H]1CC[C@@H]1[C@@H]2CC[C@]2(C)[C@@H](C3=CC(=O)OC3)CC[C@]12O showed an AC35 of 0.395 µM. Work on COC(=O)C[C@@H]1CC[C@@H]2[C@H](COc3ccc(NC(=O)c4ccc(F)c(F)c4)cc3C(=O)N2C)O1 yielded an AC35 of 64.7 µM. Molecule Nc1ccc(Oc2cccc(Oc3ccc(N)cc3)c2)cc1 has an AC35 of 1.15 µM. In the case of C[C@H]1CN([C@@H](C)CO)C(=O)c2cc(N(C)C)ccc2O[C@@H]1CN(C)Cc1ccc(C(=O)Nc2ccccc2N)cc1, the AC35 is reported as 9.36 µM. Molecule S=c1[nH]nc(-c2cc(-c3ccccc3)n[nH]2)n1/N=C/C(Br)=C/c1ccccc1 has an AC35 of 10.4 µM. Molecule CN(C)c1ccc2c(c1)[C@@H]1C[C@@H](CC(=O)NCc3ccc(Oc4ccccc4)cc3)O[C@H](CO)[C@@H]1O2 has an AC35 of 5.8 µM. O=C1NC2C(=CC(O)C(O)C2O)c2cc3c(cc21)OCO3 (centres undefined) was tested, and the AC35 was 0.429 µM. Work on O=C(COC(=O)c1ccc[nH]c1=O)Nc1ccc(N2CCCCC2)cc1 yielded an AC35 of 0.283 µM. C[C@@H]1CN([C@@H](C)CO)C(=O)Cc2cc(NC(=O)Nc3ccc(C(F)(F)F)cc3)ccc2O[C@@H]1CN(C)Cc1ccc(C(=O)Nc2ccccc2N)cc1 gave an AC35 of 7.91 µM. Molecule CN1C2CCC1/C(=C/c1ccccn1)C(=O)/C2=C\c1ccccn1 has an AC35 of 1.87 µM. Cc1cc(-c2nc3ccccc3s2)ccc1N was tested, and the AC35 was 7.98 µM. C[C@@H]1CN([C@H](C)CO)C(=O)c2cc(NC(=O)CCCCCC(=O)Nc3ccccc3N)ccc2O[C@H]1CN(C)S(=O)(=O)c1ccc(Cl)cc1 gave an AC35 of 35.2 µM. With C/C(=C\c1ccccc1)C(=O)N1CCC=CC1=O the AC35 was 10.3 µM. Molecule O=c1c2ccccc2nc(/C=C/c2cc(Br)ccc2O)n1CCCO has an AC35 of 23.9 µM. C[C@H](CO)N1C[C@H](C)[C@H](CN(C)Cc2ccc(C(=O)Nc3ccccc3N)cc2)Oc2c(cccc2N(C)C)C1=O was tested, and the AC35 was 12.9 µM. Molecule CCN1C/C(=C/c2ccc(OC)c(O)c2)C(=O)/C(=C/c2ccc(OC)c(O)c2)C1 has an AC35 of 17.3 µM.
